In assay [1] the target is baculovirus-expressed ALK (Homo sapiens, UniProt Q9UM73). Briefly: ALK kinase inhibition, TRF/ELISA. The assay is classed as biochemical. The settings on record: read-out: ALK Potency. The method in brief:
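Plates were coated with GST-PLC-γ substrate (10 μg/mL) and the reaction was started with 30 ng/mL ALK, running 15 min at 37° C. Phosphotyrosine was detected by time-resolved fluorescence with Eu-labeled PT66 antibody. IC50s came from variable-slope sigmoidal fits of percent inhibition versus log concentration.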

For assay [2], the target named is baculovirus-expressed JAK2 kinase (Homo sapiens, UniProt O60674). Nature of the assay: biochemical. The following applies: 0.2 μM ATP; read-out: JAK2 Potency. The method in brief:
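Time-resolved fluorescence kinase assay using 15 ng/mL baculovirus-expressed JAK2 on Neutravidin-captured biotinylated 15-mer peptide substrate, reaction 20 min at room temperature. IC50 from percent inhibition versus log concentration, sigmoidal variable-slope fit.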

“And” between values parts separate entries of the source, which are not always exact repeats. Identical values can stand only once. Counter-ions that a name gives are not always drawn. Bounds are passed on as bounds.

Sequence of baculovirus-expressed JAK2 kinase (O60674 whole entry): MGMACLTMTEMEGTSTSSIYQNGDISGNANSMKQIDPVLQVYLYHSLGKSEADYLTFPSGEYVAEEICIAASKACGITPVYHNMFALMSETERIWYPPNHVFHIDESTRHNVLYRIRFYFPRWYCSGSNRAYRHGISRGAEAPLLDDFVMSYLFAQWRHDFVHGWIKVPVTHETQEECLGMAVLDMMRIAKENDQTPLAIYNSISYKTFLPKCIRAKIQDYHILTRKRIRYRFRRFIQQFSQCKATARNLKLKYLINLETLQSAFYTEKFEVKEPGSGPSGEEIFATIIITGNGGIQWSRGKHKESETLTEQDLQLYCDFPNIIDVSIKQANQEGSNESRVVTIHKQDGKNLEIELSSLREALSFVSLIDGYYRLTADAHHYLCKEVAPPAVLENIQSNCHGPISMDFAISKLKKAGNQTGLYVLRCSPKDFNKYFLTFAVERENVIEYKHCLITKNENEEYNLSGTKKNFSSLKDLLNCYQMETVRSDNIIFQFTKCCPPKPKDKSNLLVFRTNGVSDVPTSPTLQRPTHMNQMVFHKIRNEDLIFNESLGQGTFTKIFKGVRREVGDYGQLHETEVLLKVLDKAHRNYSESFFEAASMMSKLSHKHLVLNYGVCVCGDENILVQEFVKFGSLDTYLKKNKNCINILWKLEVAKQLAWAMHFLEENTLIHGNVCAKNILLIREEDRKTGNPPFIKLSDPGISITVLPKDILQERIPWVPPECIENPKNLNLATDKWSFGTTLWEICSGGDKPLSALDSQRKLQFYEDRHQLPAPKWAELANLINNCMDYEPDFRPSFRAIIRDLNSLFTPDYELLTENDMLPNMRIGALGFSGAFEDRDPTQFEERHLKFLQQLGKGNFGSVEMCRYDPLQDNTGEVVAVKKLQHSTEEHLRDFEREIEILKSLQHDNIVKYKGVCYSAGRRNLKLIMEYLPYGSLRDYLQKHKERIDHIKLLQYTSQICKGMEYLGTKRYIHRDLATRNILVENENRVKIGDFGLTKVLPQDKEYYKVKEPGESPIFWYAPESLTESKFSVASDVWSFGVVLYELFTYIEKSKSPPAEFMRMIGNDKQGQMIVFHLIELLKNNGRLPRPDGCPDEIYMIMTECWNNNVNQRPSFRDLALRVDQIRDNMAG
Sequence of baculovirus-expressed ALK (Q9UM73 19-1620): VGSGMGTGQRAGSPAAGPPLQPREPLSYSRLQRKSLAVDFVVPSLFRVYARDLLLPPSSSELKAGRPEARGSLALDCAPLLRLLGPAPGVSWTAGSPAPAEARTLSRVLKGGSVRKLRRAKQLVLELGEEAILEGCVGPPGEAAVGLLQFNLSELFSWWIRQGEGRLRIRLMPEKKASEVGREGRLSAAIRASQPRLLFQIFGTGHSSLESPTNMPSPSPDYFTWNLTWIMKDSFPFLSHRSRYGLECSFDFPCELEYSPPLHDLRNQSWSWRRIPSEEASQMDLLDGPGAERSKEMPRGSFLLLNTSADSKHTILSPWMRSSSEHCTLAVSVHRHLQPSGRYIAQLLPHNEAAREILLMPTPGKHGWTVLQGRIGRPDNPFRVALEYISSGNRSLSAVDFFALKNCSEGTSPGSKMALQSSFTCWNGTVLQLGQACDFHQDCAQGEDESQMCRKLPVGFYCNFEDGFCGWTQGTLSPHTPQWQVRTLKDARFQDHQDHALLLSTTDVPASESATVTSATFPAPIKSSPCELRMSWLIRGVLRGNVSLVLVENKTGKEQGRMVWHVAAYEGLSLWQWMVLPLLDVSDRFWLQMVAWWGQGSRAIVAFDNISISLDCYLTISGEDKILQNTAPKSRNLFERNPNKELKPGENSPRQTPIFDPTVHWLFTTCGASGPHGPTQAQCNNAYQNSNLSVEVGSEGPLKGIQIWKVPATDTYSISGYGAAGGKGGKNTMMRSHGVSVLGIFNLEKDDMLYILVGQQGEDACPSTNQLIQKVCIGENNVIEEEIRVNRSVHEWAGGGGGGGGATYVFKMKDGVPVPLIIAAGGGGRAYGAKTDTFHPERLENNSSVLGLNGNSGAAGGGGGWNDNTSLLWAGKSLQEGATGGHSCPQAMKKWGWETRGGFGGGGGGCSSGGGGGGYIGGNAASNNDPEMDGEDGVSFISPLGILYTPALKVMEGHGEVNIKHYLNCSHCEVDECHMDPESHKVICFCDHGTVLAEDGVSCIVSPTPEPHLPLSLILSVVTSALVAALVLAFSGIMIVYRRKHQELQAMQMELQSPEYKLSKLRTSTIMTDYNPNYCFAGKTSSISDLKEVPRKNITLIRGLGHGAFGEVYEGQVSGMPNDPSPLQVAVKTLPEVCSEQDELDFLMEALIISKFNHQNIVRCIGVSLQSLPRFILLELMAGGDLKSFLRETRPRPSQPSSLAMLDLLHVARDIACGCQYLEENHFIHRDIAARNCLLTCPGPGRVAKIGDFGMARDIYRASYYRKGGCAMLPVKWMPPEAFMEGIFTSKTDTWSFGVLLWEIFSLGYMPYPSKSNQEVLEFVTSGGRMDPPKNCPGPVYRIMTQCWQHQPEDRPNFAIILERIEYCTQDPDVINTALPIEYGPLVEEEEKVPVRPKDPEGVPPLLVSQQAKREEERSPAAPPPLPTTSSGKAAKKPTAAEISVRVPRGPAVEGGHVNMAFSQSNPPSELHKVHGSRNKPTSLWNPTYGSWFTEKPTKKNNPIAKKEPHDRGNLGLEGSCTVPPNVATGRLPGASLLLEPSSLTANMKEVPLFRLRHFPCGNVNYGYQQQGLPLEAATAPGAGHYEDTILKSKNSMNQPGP

`COc1cc(CN2CCOCC2)ccc1Nc1nc2c(N[C@H]3[C@@H](C(N)=O)[C@@H]4C=C[C@H]3C4)c(Cl)cnc2[nH]1` [Compound LXIX, (1S,2S,3R,4R)-3-[6-Chloro-2-(2-methoxy-4-morpholin-4-ylmethyl-phenylamino)-3H-imidazo[4,5-b]pyridine-7-ylamino]-bicyclo[2.2.1]hept-5-ene-2-carboxylic acid amide]: the IC50 in assay [1] and in assay [2] was under 100 nM throughout.

Consider `Cn1cc(-c2nc3c(NC45CCC(C)(C(=O)C4)C5(C)C)c(Cl)cnc3[nH]2)cn1` (centres unmarked) [Compound CXCIX, 4-(6-chloro-2-(1-methyl-1H-pyrazol-4-yl)-3H-imidazo[4,5-b]pyridin-7-ylamino)-1,7,7-trimethylbicyclo[2.2.1]heptan-2-one], for which the IC50 in assay [1] is 1000 to 10000 nM; in assay [2], under 100 nM.

Turning to `NC(=O)[C@@H]1[C@H](Nc2c(Cl)cnc3[nH]c(-c4cccc(OCCN5CCOCC5)c4)nc23)[C@H]2C=C[C@@H]1C2` [Compound CCXXXVII, (1S,2S,3R,4R)-3-(6-chloro-2-(3-(2-morpholinoethoxy)phenyl)-3H-imidazo[4,5-b]pyridine-7-ylamino)pyridin[2.2.1]hept-5-ene-2-carboxamide], the IC50 in assay [1] was under 100 nM; in assay [2], < 100 nM and 100 to 1000 nM.

For `NC(=O)[C@@H]1[C@H](Nc2c(Cl)cnc3[nH]c(-c4ccc(N5CCNCC5)cc4)nc23)[C@H]2C=C[C@@H]1C2` [Compound XV, (1S,2S,3R,4R)-3-[6-Chloro-2-(4-piperazin-1-yl-phenyl)-3H-imidazo[4,5-b]pyridin-7-ylamino]-bicyclo[2.2.1]hept-5-ene-2-carboxylic acid amide trifluoroacetic acid salt], the IC50 in assay [1] and in assay [2] was under 100 nM throughout.

For `CN1CCN(C(=O)c2ccc(-c3nc4c(N[C@H]5[C@@H](C(N)=O)[C@@H]6C=C[C@H]5C6)c(Cl)cnc4[nH]3)cc2)CC1` [Compound CCXXII, (1S,2S,3R,4R)-3-(6-chloro-2-(4-(4-methylpiperazine-1-carbonyl)phenyl)-3H-imidazo[4,5-b]pyridin-7-ylamino)bicyclo[2.2.1]hept-5-ene-2-carboxamide], the IC50 in assay [1] and in assay [2] was under 100 nM each time.

Turning to `CC(O)CN1CCN(C(=O)COc2ccc(-c3nc4c(N[C@H]5[C@@H](C(N)=O)[C@@H]6C=C[C@H]5C6)c(Cl)cnc4[nH]3)cc2)CC1` (stereo partly drawn) [Compound CCXLII, (1S,2S,3R,4R)-3-(6-chloro-2-(4-(2-(4-(2-hydroxypropyl)piperazin-1-yl)-2-oxoethoxy)phenyl)-3H-imidazo[4,5-b]pyridin-7-ylamino)bicyclo[2.2.1]hept-5-ene-2-carboxamide], the IC50 in assay [1] and in assay [2] was under 100 nM each time.

`NC(=O)[C@@H]1[C@H](Nc2c(Cl)cnc3[nH]c(-c4cccc(-n5cccn5)c4)nc23)[C@H]2C=C[C@@H]1C2` [Compound CXXV, (1S,2S,3R,4R)-3-[6-Chloro-2-(3-pyrazol-1-yl-phenyl)-3H-imidazo[4,5-b]pyridin-7-ylamino]-bicyclo[2.2.1]hept-5-ene-2-carboxylic acid amide]: the IC50 is 1000 to 10000 nM in assay [1] and under 100 nM in assay [2].

`COC[C@H](O)CN1CCC(n2cc(-c3nc4c(N[C@H]5[C@@H](C(N)=O)[C@@H]6C=C[C@H]5C6)c(Cl)cnc4[nH]3)cn2)CC1` [Compound LX, (1S,2S,3R,4R)-3-(6-Chloro-2-{1-[1-((R)-2-hydroxy-3-methoxy-propyl)-piperidin-4-yl]-1H-pyrazol-4-yl}-3H-imidazo[4,5-b]pyridine-7-ylamino)-bicyclo[2.2.1]hept-5-ene-2-carboxylic acid amide]: the IC50 in assay [1] and in assay [2] was under 100 nM throughout.

For the compound `CN1CCC(c2nc3c(N[C@H]4[C@@H](C(N)=O)[C@@H]5C=C[C@H]4C5)c(Cl)cnc3[nH]2)CC1` [Compound CL, (1S,2S,3R,4R)-3-[6-Chloro-2-(1-methyl-piperidin-4-yl)-3H-imidazo[4,5-b]pyridin-7-ylamino]-bicyclo[2.2.1]hept-5-ene-2-carboxylic acid amide], the IC50 in assay [1] was 1000 to 10000 nM; in assay [2] it was over 10000 nM.

In the case of `COc1cc(CN2CC[C@@H](O)C2)ccc1-c1nc2c(N[C@@H]3CCCC[C@H]3NS(C)(=O)=O)c(Cl)cnc2[nH]1` [Compound LXXV, N-((1R,2R)-2-{6-Chloro-2-[4-((R)-3-hydroxy-pyrrolidin-1-ylmethyl)-2-methoxy-phenyl]-3H-imidazo[4,5-b]pyridine-7-ylamino}-cyclohexyl)-methanesulfonamide], the figures for the IC50 in assay [1] and in assay [2] were under 100 nM and 1000 to 10000 nM, respectively.

On to `Cn1cc(-c2nc3c(N[C@H]4[C@@H](C(N)=O)[C@@H]5CC[C@H]4O5)c(Cl)cnc3[nH]2)cn1` [Compound CCV, (1S,2R,3S,4R)-3-(6-chloro-2-(1-methyl-1H-pyrazol-4-yl)-3H-imidazo[4,5-b]pyridin-7-ylamino)-7-oxabicyclo[2.2.1]heptane-2-carboxamide], for which the IC50 in assay [1] is over 10000 nM; in assay [2] it was 100 to 1000 nM.

In the case of `COc1cc(C(=O)N2CCOCC2)ccc1-c1nc2c(N[C@H]3[C@@H](C(N)=O)[C@@H]4C=C[C@H]3C4)c(Cl)cnc2[nH]1` [Compound LXIII, (1S,2S,3R,4R)-3-{6-Chloro-2-[2-methoxy-4-(morpholine-4-carbonyl)-phenyl]-3H-imidazo[4,5-b]pyridine-7-ylamino}-bicyclo[2.2.1]hept-5-ene-2-carboxylic acid amide], the IC50 in assay [1] and in assay [2] was under 100 nM in each case.

In the case of `CN(C)c1nc(Cl)c(-c2nc3c(N[C@H]4[C@@H](C(N)=O)[C@@H]5C=C[C@H]4C5)c(Cl)cnc3[nH]2)s1` [Compound CLIV, (1S,2S,3R,4R)-3-[6-Chloro-2-(4-chloro-2-dimethylamino-thiazol-5-yl)-3H-imidazo[4,5-b]pyridin-7-ylamino]-bicyclo[2.2.1]hept-5-ene-2-carboxylic acid amide], the IC50 in assay [1] and in assay [2] was under 100 nM in each case.

Regarding `CC(C)(C)OC(=O)N1CCC(n2cc(-c3nc4c(N[C@H]5[C@@H](C(N)=O)[C@@H]6C=C[C@H]5C6)c(Cl)cnc4[nH]3)cn2)CC1` [Compound L, 4-{4-[7-((1R,2R,3S,4S)-3-Carbamoyl-bicyclo[2.2.1]hept-5-en-2-ylamino)-6-chloro-3H-imidazo[4,5-b]pyridine-2-yl]-pyrazol-1-yl}-piperidine-1-carboxylic acid tert-butyl ester], the IC50 is 100 to 1000 nM in assay [1] and under 100 nM in assay [2].

Take `NC(=O)[C@@H]1[C@H](Nc2c(Cl)cnc3[nH]c(-c4ccc(N5CCOCC5)c(Cl)c4)nc23)[C@H]2C=C[C@@H]1C2` [Compound CXXXVII, (1S,2S,3R,4R)-3-[6-Chloro-2-(3-chloro-4-morpholin-4-yl-phenyl)-3H-imidazo[4,5-b]pyridin-7-ylamino]-bicyclo[2.2.1]hept-5-ene-2-carboxylic acid amide]: the IC50 is 100 to 1000 nM in assay [1] and under 100 nM in assay [2].

As for `NC(=O)[C@@H]1[C@H](Nc2c(Cl)cnc3[nH]c(-c4ccc(Cl)cc4)nc23)[C@H]2C=C[C@@H]1C2` [Compound CXLI, (1S,2S,3R,4R)-3-[6-Chloro-2-(4-chloro-phenyl)-3H-imidazo[4,5-b]pyridin-7-ylamino]-bicyclo[2.2.1]hept-5-ene-2-carboxylic acid amide], the IC50 was 100 to 1000 nM in assay [1] and under 100 nM in assay [2].

These data come from US9238656B2, “Imidazo[4,5-b]pyridine derivatives as ALK and JAK modulators for the treatment of proliferative disorders” (priority 2012, dated 2016).
